Experimental data from the NIST ThermoML archive (doi:10.1021/acs.jced.8b00554).

Columns and labels:
[1] = Liquid, Vibrating tube method
[2] = refractive index (Na D-line) (dimensionless); details: 293.15 K; 101.33 kPa; Liquid; Standard Abbe refractometry

CCCCCCCCC [nonane]
[1]
Details | mass density [kg/m3]
313.15 K, 100 kPa | 701.49
313.15 K, 1050 kPa | 702.34
313.15 K, 2030 kPa | 703.25
313.15 K, 3030 kPa | 704.17
313.15 K, 4040 kPa | 705.07
313.15 K, 5050 kPa | 705.96
313.15 K, 5980 kPa | 706.78
313.15 K, 7050 kPa | 707.7
313.15 K, 8060 kPa | 708.56
313.15 K, 9060 kPa | 709.4
313.15 K, 10070 kPa | 710.23
313.15 K, 11050 kPa | 710.92
313.15 K, 12030 kPa | 711.71
313.15 K, 13030 kPa | 712.51
313.15 K, 14040 kPa | 713.3
313.15 K, 15050 kPa | 714.09
313.15 K, 15980 kPa | 714.8
313.15 K, 17050 kPa | 715.61
313.15 K, 18060 kPa | 716.36
313.15 K, 19060 kPa | 717.1
313.15 K, 20070 kPa | 717.83
323.15 K, 100 kPa | 693.34
323.15 K, 1030 kPa | 694.03
323.15 K, 2040 kPa | 695.02
323.15 K, 3030 kPa | 695.98
323.15 K, 4040 kPa | 696.94
323.15 K, 5040 kPa | 697.88
323.15 K, 6040 kPa | 698.81
323.15 K, 7050 kPa | 699.74
323.15 K, 8060 kPa | 700.65
323.15 K, 9060 kPa | 701.55
323.15 K, 10060 kPa | 702.43
323.15 K, 11030 kPa | 703.16
323.15 K, 12040 kPa | 704.02
323.15 K, 13030 kPa | 704.87
323.15 K, 14040 kPa | 705.71
323.15 K, 15040 kPa | 706.54
323.15 K, 16040 kPa | 707.35
323.15 K, 17050 kPa | 708.16
323.15 K, 18060 kPa | 708.96
323.15 K, 19060 kPa | 709.74
323.15 K, 20060 kPa | 710.52
333.15 K, 100 kPa | 685.03
333.15 K, 1030 kPa | 685.98
333.15 K, 2020 kPa | 687
333.15 K, 3020 kPa | 688.03
333.15 K, 4020 kPa | 689.05
333.15 K, 5030 kPa | 690.05
333.15 K, 6030 kPa | 691.03
333.15 K, 7030 kPa | 692
333.15 K, 8040 kPa | 692.97
333.15 K, 9040 kPa | 693.91
333.15 K, 10050 kPa | 694.85
333.15 K, 11030 kPa | 695.64
333.15 K, 12020 kPa | 696.54
333.15 K, 13020 kPa | 697.44
333.15 K, 14020 kPa | 698.32
333.15 K, 15030 kPa | 699.2
333.15 K, 16030 kPa | 700.06
333.15 K, 17030 kPa | 700.91
333.15 K, 18040 kPa | 701.76
333.15 K, 19040 kPa | 702.59
333.15 K, 20050 kPa | 703.42
343.15 K, 100 kPa | 677.18
343.15 K, 1000 kPa | 678.15
343.15 K, 2010 kPa | 679.25
343.15 K, 3010 kPa | 680.33
343.15 K, 4020 kPa | 681.41
343.15 K, 5030 kPa | 682.46
343.15 K, 6030 kPa | 683.5
343.15 K, 7040 kPa | 684.52
343.15 K, 8040 kPa | 685.53
343.15 K, 9050 kPa | 686.53
343.15 K, 10050 kPa | 687.51
343.15 K, 11000 kPa | 688.33
343.15 K, 12010 kPa | 689.29
343.15 K, 13010 kPa | 690.24
343.15 K, 14020 kPa | 691.18
343.15 K, 15030 kPa | 692.1
343.15 K, 16030 kPa | 693.01
343.15 K, 17040 kPa | 693.91
343.15 K, 18040 kPa | 694.8
343.15 K, 19050 kPa | 695.68
343.15 K, 20050 kPa | 696.54
353.15 K, 100 kPa | 669.55
353.15 K, 1000 kPa | 670.57
353.15 K, 2000 kPa | 671.72
353.15 K, 3010 kPa | 672.85
353.15 K, 4010 kPa | 673.98
353.15 K, 5020 kPa | 675.08
353.15 K, 6020 kPa | 676.17
353.15 K, 7020 kPa | 677.25
353.15 K, 8030 kPa | 678.31
353.15 K, 9030 kPa | 679.35
353.15 K, 10040 kPa | 680.39
353.15 K, 11000 kPa | 681.26
353.15 K, 12000 kPa | 682.26
353.15 K, 13010 kPa | 683.26
353.15 K, 14010 kPa | 684.23
353.15 K, 15020 kPa | 685.21
353.15 K, 16020 kPa | 686.16
353.15 K, 17020 kPa | 687.1
353.15 K, 18030 kPa | 688.03
353.15 K, 19030 kPa | 688.95
353.15 K, 20040 kPa | 689.86
363.15 K, 100 kPa | 662.05
363.15 K, 990 kPa | 663.2
363.15 K, 2000 kPa | 664.41
363.15 K, 3010 kPa | 665.6
363.15 K, 4010 kPa | 666.77
363.15 K, 5020 kPa | 667.93
363.15 K, 6020 kPa | 669.07
363.15 K, 7030 kPa | 670.19
363.15 K, 8030 kPa | 671.3
363.15 K, 9040 kPa | 672.4
363.15 K, 10040 kPa | 673.47
363.15 K, 10990 kPa | 674.38
363.15 K, 12000 kPa | 675.44
363.15 K, 13010 kPa | 676.48
363.15 K, 14010 kPa | 677.5
363.15 K, 15020 kPa | 678.52
363.15 K, 16020 kPa | 679.51
363.15 K, 17030 kPa | 680.5
363.15 K, 18030 kPa | 681.47
363.15 K, 19040 kPa | 682.43
363.15 K, 20040 kPa | 683.38

Details | refractive index
[2] | 1.4056
